Measured values from ChEMBL document CHEMBL1201862, “PubChem BioAssay data set” (2004).
Calls of active or inactive are those of the source.

Tests used:
[1] = cytotoxicity in HPDE-C7 cells, cell-based, fluorescence, HTS (AID 430); assay type: functional; conditions: Homo sapiens
[2] = Luminescence Cell-Based Dose Retest to Confirm Inhibitors of Cancer Stem Cells. [Related pubchem assays (depositor defined):AID2717, AID2721]; assay type: functional; conditions: Homo sapiens
[3] = cytotoxicity in KRAS-transformed pancreatic duct cells, primary screen, cell-based, fluorescence, HTS (AID 431); assay type: functional; conditions: Homo sapiens;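 note: cell line used: HPDE-C7K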
[4] = P. falciparum late gametocyte killing, dose response, luminescence (AID 1117278); assay type: functional, cell-based;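 note: gametocytes exposed to compound for 24 hours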
[5] = Jurkat T cell cytotoxicity, dose response, cytotoxicity control for P. falciparum gametocyte viability project, luminescence (AID 1117277); assay type: functional, cell-based;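 note: potency reflects loss of cellular ATP meaning fewer viable cells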
[6] = target: Peroxisome proliferator-activated receptor gamma/Nuclear receptor coactivator 2 (Homo sapiens, UniProt P37231); assay type: functional;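 note: agonist potency for raising coactivator recruitment to the receptor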
[7] = target: Peroxisome proliferator-activated receptor gamma/Nuclear receptor coactivator 1 (Homo sapiens, UniProt P37231); assay type: functional;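 note: agonist potency as compounds enhance coactivator SRC-1 recruitment to PPARgamma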
[8] = target: Peroxisome proliferator-activated receptor gamma/Nuclear receptor coactivator 3 (Homo sapiens, UniProt P37231); assay type: functional;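 note: agonist potency for raising coactivator recruitment to the receptor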
[9] = HEK293T cytotoxicity, dose response, cytotoxicity control for miR-122 modulator project, cell-based, inhibitor set, cherry-pick, set 2 (AID 720697); assay type: functional
[10] = P. falciparum Dd2 growth inhibitors, dose response, SYBR Green, cherry-picked samples (AID 1159567); assay type: functional, cell-based
[11] = P. falciparum 3D7-ScDHODH growth inhibitors, dose response, SYBR Green, dry powder samples (AID 1159570); assay type: functional, cell-based;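 note: parasite growth measured after 72 hours of compound exposure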
[12] = P. falciparum Dd2 growth inhibitors, dose response, SYBR Green, dry powder samples (AID 1159566); assay type: functional, cell-based;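 note: potency for growth inhibition with lower SYBR green DNA signal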
[13] = P. falciparum ATP4 D1247Y mutant growth inhibitors, dose response, NITD609-resistant line, SYBR Green, dry powder (AID 1159571); assay type: functional, cell-based;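 note: parasites synchronized at ring stage by sorbitol before testing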
HT-1080 = assay: cytotoxicity in HT1080 fibrosarcoma cells, cell-based, fluorescence readout (AID 620); assay type: functional; conditions: Homo sapiens
[14] = target: Luciferin 4-monooxygenase (Photinus pyralis, UniProt P08659); assay: Counter Screen for Luciferase-based Assay Positives. [Related pubchem assays: 620, 618, 411 ]
[15] = target: Glyceraldehyde-3-phosphate dehydrogenase (Homo sapiens, UniProt P04406)
[16] = target: Mitogen-activated protein kinase 10 (Homo sapiens, UniProt P53779); assay: Dose response biochemical screening assay for inhibitors of c-Jun N-Terminal Kinase 3 (JNK3). [Related pubchem assays: 746 ]
[17] = cytotoxicity toward NIH3T3 fibroblasts, dose response, counter-screen, cell-based, ATP luminescence, mouse fibroblasts (AID 2010); assay type: functional;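 note: cells exposed to compound for about 90 hours before reading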
[18] = inhibitors of intracellular T. cruzi replication, confirmation, NIH3T3 host cells, beta-gal luminescence (AID 2044); assay type: functional, cell-based;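 note: intracellular parasites grown in NIH/3T3 mouse fibroblasts as host cells; luminescent beta-galactosidase reporter signal from transgenic T. cruzi replicating inside host cells; inhibitors lower the luminescence signal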
Protein skinhead-1 = target: T1, Protein skinhead-1 (Caenorhabditis elegans, UniProt P34707); assay type: functional
T1 sequence (P34707 whole entry): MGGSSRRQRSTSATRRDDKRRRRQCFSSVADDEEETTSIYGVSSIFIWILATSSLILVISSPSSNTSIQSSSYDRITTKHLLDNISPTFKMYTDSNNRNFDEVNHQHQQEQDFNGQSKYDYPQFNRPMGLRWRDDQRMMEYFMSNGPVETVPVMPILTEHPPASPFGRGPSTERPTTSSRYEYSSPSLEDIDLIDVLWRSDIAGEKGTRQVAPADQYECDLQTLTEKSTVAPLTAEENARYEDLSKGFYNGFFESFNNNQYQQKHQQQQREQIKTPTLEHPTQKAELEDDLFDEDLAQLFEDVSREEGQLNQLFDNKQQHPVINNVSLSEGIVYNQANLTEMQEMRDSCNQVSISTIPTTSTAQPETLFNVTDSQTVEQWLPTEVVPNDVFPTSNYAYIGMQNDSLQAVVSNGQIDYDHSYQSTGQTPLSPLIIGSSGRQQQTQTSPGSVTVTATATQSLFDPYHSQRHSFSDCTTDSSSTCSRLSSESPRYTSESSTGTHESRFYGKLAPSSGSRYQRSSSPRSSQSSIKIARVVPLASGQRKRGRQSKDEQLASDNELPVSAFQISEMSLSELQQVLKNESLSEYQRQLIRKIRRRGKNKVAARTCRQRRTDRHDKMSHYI

[19] = target: T2, Histone-lysine N-methyltransferase NSD2 (Homo sapiens, UniProt O96028); assay type: biochemical
T2 sequence (O96028 whole entry): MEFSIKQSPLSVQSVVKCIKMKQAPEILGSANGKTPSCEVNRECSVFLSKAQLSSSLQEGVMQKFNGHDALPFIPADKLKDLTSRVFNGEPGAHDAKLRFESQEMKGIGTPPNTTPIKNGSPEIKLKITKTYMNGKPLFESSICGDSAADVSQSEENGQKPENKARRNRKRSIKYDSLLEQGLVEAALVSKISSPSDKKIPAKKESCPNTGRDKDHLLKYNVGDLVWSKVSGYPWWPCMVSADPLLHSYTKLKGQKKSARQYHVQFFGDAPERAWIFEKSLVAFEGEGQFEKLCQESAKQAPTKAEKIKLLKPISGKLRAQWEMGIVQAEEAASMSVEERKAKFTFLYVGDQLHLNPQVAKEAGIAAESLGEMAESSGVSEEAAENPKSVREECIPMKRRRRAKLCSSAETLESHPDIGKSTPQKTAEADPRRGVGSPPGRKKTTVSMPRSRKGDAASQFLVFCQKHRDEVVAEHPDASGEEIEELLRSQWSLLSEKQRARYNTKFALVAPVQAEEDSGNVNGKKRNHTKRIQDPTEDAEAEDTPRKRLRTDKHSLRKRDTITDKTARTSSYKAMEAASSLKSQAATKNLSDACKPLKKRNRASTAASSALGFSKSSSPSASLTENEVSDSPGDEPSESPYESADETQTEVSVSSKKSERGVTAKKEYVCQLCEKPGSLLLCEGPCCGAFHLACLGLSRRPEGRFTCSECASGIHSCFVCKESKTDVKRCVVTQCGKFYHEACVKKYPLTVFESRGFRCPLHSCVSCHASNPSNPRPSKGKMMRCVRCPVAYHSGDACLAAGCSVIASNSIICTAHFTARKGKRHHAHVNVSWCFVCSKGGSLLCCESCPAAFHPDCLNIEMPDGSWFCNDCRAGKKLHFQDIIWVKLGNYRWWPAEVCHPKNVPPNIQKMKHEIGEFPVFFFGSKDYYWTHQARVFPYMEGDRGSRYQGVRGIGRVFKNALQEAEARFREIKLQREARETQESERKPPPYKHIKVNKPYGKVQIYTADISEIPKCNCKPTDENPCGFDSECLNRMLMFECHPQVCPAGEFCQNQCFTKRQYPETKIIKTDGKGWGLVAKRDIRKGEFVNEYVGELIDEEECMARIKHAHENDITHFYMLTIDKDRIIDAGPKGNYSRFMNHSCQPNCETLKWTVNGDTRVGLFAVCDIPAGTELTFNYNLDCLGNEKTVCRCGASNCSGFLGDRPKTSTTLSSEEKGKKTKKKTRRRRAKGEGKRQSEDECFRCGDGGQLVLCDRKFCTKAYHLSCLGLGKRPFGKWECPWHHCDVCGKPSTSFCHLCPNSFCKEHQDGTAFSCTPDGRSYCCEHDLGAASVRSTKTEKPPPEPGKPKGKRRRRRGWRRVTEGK

H9c2 = assay: cells; assay type: functional, cell-based; conditions: Rattus norvegicus, H9c2, Myocardium;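 note: confirmatory concentration-response retest of ultra-high-throughput screening hits for modulation of myocardial damage; cell death induced by hydrogen peroxide oxidative stress; compound pretreatment for 60 min then peroxide exposure for 2 h; potency is for protecting the cells against peroxide damage rather than for killing them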
[20] = microbe, parasite or virus in culture; assay type: functional; conditions: Mycobacterium tuberculosis

Peroxisome proliferator-activated receptor gamma/Nuclear receptor coactivator 2, sequence (P37231 whole entry): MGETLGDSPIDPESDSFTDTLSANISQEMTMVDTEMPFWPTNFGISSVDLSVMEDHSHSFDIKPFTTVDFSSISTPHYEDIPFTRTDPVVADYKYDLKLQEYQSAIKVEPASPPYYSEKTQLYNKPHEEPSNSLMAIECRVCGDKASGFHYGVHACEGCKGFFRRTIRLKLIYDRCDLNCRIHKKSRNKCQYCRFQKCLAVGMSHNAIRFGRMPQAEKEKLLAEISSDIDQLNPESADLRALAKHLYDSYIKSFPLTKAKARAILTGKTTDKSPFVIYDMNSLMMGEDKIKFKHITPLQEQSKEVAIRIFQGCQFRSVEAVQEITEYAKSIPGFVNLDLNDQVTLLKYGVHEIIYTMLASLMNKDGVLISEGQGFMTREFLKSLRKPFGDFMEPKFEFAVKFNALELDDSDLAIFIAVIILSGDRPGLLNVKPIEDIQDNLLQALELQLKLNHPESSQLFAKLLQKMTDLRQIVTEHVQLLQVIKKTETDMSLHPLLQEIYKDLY
Peroxisome proliferator-activated receptor gamma/Nuclear receptor coactivator 2, sequence (Q15596 whole entry, further chain): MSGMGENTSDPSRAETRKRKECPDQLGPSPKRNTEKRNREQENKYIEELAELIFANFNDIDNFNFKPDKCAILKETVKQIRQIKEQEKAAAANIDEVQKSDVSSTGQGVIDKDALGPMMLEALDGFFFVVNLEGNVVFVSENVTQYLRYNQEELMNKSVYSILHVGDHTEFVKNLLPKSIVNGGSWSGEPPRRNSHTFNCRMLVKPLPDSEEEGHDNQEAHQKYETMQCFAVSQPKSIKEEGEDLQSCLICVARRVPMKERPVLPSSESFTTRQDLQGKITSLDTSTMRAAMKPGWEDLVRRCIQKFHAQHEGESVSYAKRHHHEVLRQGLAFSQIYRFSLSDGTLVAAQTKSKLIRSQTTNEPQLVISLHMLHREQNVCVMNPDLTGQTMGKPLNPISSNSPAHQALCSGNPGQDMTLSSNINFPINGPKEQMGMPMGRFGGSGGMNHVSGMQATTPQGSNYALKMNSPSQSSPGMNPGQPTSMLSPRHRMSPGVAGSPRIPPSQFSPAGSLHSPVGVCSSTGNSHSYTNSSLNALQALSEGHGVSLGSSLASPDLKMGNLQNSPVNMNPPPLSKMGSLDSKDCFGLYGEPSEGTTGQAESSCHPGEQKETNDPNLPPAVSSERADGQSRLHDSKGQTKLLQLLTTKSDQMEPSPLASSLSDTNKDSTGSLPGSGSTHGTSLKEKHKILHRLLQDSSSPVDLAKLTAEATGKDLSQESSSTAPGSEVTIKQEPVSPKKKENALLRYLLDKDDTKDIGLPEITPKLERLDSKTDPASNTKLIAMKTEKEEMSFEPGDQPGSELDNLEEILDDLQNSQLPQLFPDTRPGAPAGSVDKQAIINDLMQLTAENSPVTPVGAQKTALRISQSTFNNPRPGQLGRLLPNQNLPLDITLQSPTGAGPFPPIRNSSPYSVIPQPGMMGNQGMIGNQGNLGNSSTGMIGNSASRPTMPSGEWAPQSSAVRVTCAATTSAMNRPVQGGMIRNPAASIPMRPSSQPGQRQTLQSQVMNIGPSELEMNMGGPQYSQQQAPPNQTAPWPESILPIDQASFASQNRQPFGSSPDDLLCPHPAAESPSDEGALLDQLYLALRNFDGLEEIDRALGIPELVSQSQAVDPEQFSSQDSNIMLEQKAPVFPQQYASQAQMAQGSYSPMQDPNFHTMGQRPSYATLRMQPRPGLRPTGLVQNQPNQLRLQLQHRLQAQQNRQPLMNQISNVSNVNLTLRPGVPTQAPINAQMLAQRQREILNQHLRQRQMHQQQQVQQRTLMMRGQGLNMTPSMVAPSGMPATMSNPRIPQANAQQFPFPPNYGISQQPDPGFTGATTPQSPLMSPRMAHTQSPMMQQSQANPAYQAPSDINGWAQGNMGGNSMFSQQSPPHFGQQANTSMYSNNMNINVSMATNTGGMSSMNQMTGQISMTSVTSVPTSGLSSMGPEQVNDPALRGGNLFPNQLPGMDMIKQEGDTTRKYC
Peroxisome proliferator-activated receptor gamma/Nuclear receptor coactivator 1, sequence (P37231 whole entry): as the sequence (P37231 whole entry) above
Peroxisome proliferator-activated receptor gamma/Nuclear receptor coactivator 1, sequence (Q15788 whole entry, further chain): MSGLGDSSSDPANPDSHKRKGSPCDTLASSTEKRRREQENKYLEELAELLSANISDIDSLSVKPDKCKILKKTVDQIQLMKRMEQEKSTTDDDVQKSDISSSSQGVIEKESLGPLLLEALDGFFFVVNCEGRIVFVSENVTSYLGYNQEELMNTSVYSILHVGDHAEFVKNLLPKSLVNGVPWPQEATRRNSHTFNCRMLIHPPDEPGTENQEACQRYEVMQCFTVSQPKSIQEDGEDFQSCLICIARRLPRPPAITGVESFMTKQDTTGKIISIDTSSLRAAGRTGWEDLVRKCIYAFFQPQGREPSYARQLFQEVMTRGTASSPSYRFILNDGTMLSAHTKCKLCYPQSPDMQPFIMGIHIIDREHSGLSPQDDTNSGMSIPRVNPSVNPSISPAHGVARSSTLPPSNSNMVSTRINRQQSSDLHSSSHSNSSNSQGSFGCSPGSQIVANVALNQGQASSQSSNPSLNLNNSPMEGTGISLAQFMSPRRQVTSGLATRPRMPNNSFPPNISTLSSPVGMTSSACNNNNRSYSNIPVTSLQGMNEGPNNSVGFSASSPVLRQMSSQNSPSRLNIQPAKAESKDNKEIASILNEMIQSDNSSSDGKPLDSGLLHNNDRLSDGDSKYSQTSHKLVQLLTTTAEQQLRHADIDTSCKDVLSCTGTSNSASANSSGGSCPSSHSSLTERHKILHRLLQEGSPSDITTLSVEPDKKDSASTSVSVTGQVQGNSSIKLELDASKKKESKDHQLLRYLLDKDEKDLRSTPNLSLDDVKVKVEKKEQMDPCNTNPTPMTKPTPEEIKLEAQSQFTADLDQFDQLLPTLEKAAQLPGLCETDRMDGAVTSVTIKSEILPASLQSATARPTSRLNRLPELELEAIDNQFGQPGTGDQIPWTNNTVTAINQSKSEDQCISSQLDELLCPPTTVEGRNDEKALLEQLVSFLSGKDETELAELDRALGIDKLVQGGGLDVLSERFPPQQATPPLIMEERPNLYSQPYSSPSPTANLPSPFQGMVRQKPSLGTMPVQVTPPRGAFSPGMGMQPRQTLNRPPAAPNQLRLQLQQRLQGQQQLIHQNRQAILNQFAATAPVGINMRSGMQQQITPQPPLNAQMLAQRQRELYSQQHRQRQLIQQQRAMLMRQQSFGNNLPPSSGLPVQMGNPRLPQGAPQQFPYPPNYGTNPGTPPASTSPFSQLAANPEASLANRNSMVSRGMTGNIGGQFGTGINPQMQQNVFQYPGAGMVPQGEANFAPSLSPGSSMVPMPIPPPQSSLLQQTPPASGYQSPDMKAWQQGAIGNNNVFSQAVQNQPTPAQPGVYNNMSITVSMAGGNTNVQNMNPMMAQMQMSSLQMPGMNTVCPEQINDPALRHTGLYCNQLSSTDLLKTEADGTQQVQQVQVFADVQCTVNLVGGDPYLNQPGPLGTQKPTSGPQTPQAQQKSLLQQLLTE
Mitogen-activated protein kinase 10, sequence (P53779 whole entry): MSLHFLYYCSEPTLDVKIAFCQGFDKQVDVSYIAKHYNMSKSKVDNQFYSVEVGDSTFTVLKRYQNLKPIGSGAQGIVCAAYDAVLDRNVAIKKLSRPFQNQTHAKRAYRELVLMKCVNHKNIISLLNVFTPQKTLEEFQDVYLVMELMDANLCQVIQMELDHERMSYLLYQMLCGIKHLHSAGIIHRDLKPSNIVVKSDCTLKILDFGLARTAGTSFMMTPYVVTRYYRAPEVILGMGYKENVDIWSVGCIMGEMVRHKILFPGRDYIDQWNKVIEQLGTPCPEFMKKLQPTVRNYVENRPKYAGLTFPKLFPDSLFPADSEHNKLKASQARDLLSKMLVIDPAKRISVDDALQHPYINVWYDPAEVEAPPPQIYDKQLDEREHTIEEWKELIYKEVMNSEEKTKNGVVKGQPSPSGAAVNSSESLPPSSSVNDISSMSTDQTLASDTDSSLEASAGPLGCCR
Luciferin 4-monooxygenase, sequence (P08659 whole entry): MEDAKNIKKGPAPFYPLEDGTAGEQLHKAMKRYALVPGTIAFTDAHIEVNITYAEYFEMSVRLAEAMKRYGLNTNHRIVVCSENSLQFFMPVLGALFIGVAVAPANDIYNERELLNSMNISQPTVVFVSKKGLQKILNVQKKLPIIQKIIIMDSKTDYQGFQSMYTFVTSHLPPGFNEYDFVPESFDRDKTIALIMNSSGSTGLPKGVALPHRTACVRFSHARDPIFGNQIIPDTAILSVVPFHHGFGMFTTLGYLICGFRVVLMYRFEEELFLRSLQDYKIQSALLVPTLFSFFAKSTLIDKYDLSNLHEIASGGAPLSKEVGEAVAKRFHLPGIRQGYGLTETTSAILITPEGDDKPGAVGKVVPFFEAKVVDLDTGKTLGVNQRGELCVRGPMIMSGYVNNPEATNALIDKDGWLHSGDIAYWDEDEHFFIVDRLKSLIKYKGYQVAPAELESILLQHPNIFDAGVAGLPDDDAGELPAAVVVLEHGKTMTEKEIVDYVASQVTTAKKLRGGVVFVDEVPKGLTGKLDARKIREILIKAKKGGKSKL

Question: What does the source list for `CC(C)(C)c1nc(N2CCN(C(=O)c3ccco3)CC2)c2nnn(Cc3ccccc3Cl)c2n1`?
Answer: EC50 [1]: 4.47 µM (active); AC50 [2]: 3.44 µM (active); EC50 [3]: 5.38 µM (active)

Question: Which IC50 [4] does the source give for `O=C(CCCn1c(=O)[nH]c2cc(Cl)ccc2c1=O)NCCCN1CCCC1` here?
Answer: > 109 µM (inactive)

Question: What about the IC50 [5] of the same compound?
Answer: > 83.3 µM (inactive)

Question: For `CCN(CC)CCCNC(=O)c1ccc2c(SCC(=O)O)c3c(nc2c1)CCC3`, which EC50 [6] is on record?
Answer: > 79.4 µM (not active)

Question: What about the EC50 [7] of the same compound?
Answer: > 79.4 µM (not active)

Question: And the EC50 [8]?
Answer: > 79.4 µM (not active)

Question: With `C/C=C/c1ccc([C@H]2[C@@H](CO)N[C@@H]2CN(CC)C(=O)CN2CCOCC2)cc1` as the compound, how does the AC50 [9] read?
Answer: 47.6 µM (active)

Question: For `COc1ccc(C#Cc2ccc3c(c2)O[C@@H](CN(C)C(=O)Nc2cccc(OC)c2)[C@H](C)CN([C@H](C)CO)S3(=O)=O)cc1`, which AC50 [10] is on record?
Answer: 1.5 µM (active)

Question: And the AC50 [11]?
Answer: 0.799 µM (active)

Question: What about the AC50 [12] of the same compound?
Answer: 0.662 µM (active)

Question: And the AC50 [13]?
Answer: 0.986 µM (active)

Question: Which EC50 (HT-1080) does the source give for `COc1ccc(-c2cc3nnc(-c4ccccc4)nc3s2)cc1` here?
Answer: > 50 µM (not active)

Question: What about the EC50 [14] of the same compound?
Answer: 0.27 µM (active)

Question: What about the IC50 [15] of the same compound?
Answer: > 100 µM (not active)

Question: With `COc1ccc(-c2c3c([nH]c(=S)c2C#N)CCC3)cc1` as the compound, how does the IC50 [16] read?
Answer: 17.6 µM (not active)

Question: Which results are given for `N=c1c2c(-c3ccccc3)c(-c3ccccc3)n(Cc3ccccc3)c2ncn1CCCO`?
Answer: EC50 [17]: > 60 µM (inconclusive); EC50 [18]: 1.26 µM (active); AC50 [9]: 7.08 µM (active); IC50 (Protein skinhead-1): > 100 µM (inactive)

Question: For `CN(C)/C=N/C(=O)/C(C#N)=C1\CCc2ccccc2N1`, which IC50 [16] is on record?
Answer: > 93.1 µM (not active)

Question: For `CNCCCOc1cccc(OC(C)C)c1`, which AC50 [19] is on record?
Answer: 17.3 µM (active)

Question: For `COCCCNC(=O)c1c(N)n(/N=C/c2cccs2)c2nc3ccccc3nc12`, which EC50 [1] is on record?
Answer: 9.78 µM (active)

Question: What about the EC50 [3] of the same compound?
Answer: > 20 µM (not active)

Question: For `COc1ccc(OC)c(Nc2nc(N)nc(-c3cc4ccccc4o3)n2)c1`, which IC50 (H9c2) is on record?
Answer: > 79 µM (inactive)

Question: And the IC50 [16]?
Answer: 47.8 µM (not active)

Question: For `C[C@H](CO)N1C[C@H](C)[C@H](CN(C)S(=O)(=O)c2ccc(C#N)cc2)OCc2ccccc2-c2c(n(C)c3ccccc23)C1=O`, which AC50 [10] is on record?
Answer: 1.25 µM (active)

Question: And the AC50 [11]?
Answer: 0.563 µM (active)

Question: And the AC50 [12]?
Answer: 0.314 µM (active)

Question: What about the AC50 [13] of the same compound?
Answer: 0.41 µM (active)

Question: For `O=C(Cc1c[nH]c2ccccc12)Nc1nccs1`, which IC50 [4] is on record?
Answer: > 109 µM (inactive)

Question: And the IC50 [5]?
Answer: > 83.3 µM (inactive)

Question: For `CCn1c(C(C)NC(C)=O)nc2ccccc21` (configuration not stated), which IC50 [16] is on record?
Answer: > 93.1 µM (not active)

Question: For `NC(N)=Nc1nc(CSCCC(N)=NS(N)(=O)=O)cs1` [FAMOTIDINE], which EC50 [6] is on record?
Answer: > 79.4 µM (not active)

Question: And the EC50 [7]?
Answer: > 79.4 µM (not active)

Question: And the EC50 [8]?
Answer: > 79.4 µM (not active)

Question: For `COc1cccc(N2CCN(c3[nH]cnc4c5ccccc5nc3-4)CC2C)c1` (configuration not stated), which EC50 [1] is on record?
Answer: 3.33 µM (active)

Question: And the CC50 [20]?
Answer: 7.28 µM (active)

Question: What about the EC50 [3] of the same compound?
Answer: 3.01 µM (active)

Question: What does the source list for `CCCn1c(=S)[nH]c2cc(C(=O)N3CCc4ccccc4C3)ccc2c1=O`?
Answer: IC50 [4]: > 109 µM (inactive); IC50 [5]: > 83.3 µM (inactive)

Question: Which IC50 [4] does the source give for `Cc1ccc(NC(=O)C2CCN(c3nc(C)cc(C)n3)CC2)cc1` here?
Answer: > 109 µM (inactive)

Question: What about the IC50 [5] of the same compound?
Answer: > 83.3 µM (inactive)

Question: Which EC50 [6] does the source give for `Cc1ccccc1-n1c(S)nnc1-c1ccco1` here?
Answer: > 79.4 µM (not active)

Question: What about the EC50 [7] of the same compound?
Answer: > 79.4 µM (not active)

Question: What about the EC50 [8] of the same compound?
Answer: > 79.4 µM (not active)
